Assay results: patent publication US20220073981A1 (KOREA INSTITUTE OF SCIENCE AND TECHNOLOGY, priority 2020, published 2022)

System: BEAS-2B cell line
Test: Cytotoxicity test (MTT assay)
Assay type: cell-based, human
Settings: 48 hours exposure
Description: An MTT assay was performed using the BEAS-2B cell line according to the method of Mossman et al. (J. Immunol. Methods, 65, 55-63, 1983).

## CCC(C)=O [2-butanone]
  concentration (IC5) showing the 95% survival rate: 22.27 mM
  concentration showing the 80% survival rate: 106.21 mM
